# Measured values: patent US6599499B1, “Uses of diterpenoid triepoxides as an anti-proliferative agent” (priority 1999, dated 2003)
# Assays:
# p21 = p21 protein level by immunoblotting (Example 5); type: cell-based, human; conditions: for effect on p21 expression: p53 mutant HT29 colon cancer cell line
# Procedure: (§1) Immunoblotting. Cells were harvested at the conditions and times indicated and lysed using HNET buffer (50 mM HEPES, pH 7.5, 100 mM NaCl, 1 mM EGTA, and 1% Triton X-100) supplemented with 1 mM dithiothreitol, 1 mM phenylmethylsulfonyl fluoride, and protease inhibitors mixture (Roche Molecular Biochemicals). 100 μg of protein was loaded on 10% SDS-PAGE followed by transferring to polyvinylidene difluoride membrane. Immunoblotting was performed as described previously using a p53 mouse monoclonal antibody from Oncogene Research Products. […] Immunoblot analysis using other antibodies was performed as described above. The band intensity was measured by NIH Image 1.62.
# Mdm2 = Mdm2 mRNA (RT-PCR) and protein (immunoblot) in MCF-7 cells; type: cell-based, human
# Procedure: RT-PCR. RNA was prepared from MCF-7 cells using Rneasy Mini Kit from Qiagen Inc. (Valencia, Calif.). cDNAs were prepared using M-MLV reverse transcriptase (Gibco) with 2 μg of total RNA. 1/20 of total cDNA was used in limited (25 cycles) PCR reactions using Taq polymerase (Gibco). The following primer pairs were used: p53 [SEQ ID NO:1] 5′-[…]-3′ and 5′-[SEQ ID NO:2] TCTTCUTXGGCTGGGGAGAG-3′, mdm2, [SEQ ID NO:3] 5′-[…]-3′ and [SEQ ID NO:4] 5′-[…]-3′, p21, [SEQ ID NO:5] 5′-[…]-3′ and [SEQ ID NO:6] 5′-[…]-3′, and glyceraldehyde-3-phosphate dehydrogenase (GAPDH)- [SEQ ID NO:7] 5′-[…]-3′ and [SEQ ID NO:8] 5′-[…]-3′.
# (§2) Immunoblotting. At 8 hours after triptolide and/or doxorubicin treatment cells were harvested at the times indicated and lysed using HNET buffer (50 mM HEPES pH 7.5, 100 mM NaCl, 1 mM EGTA, and 1% Triton X-100) supplemented with 1 mM DTT, 1 mM PMSF and protease inhibitors cocktail (Boehringer Mannheim, Germany). 35 μg of protein was loaded on 10% SDS-PAGE followed by transferring to PVDF membrane. Immunoblotting was performed as previously described using a p53 mouse monoclonal antibody from Oncogene Research Products (Lee et al. (1999) J Biol Chem 274:13451-5).
# In the experiments shown in FIG. 5, RT-PCR was performed using 2 μg of total RNAs extracted from MCF-7 cells. […] GADPH was used as a loading control. The plasmid pBP100-GL2 which contains a p53-binding site in the mdm2 promoter was transiently transfected into MCF-7 cells, and cellular lysates were used for the luciferase assay.
# p53 [1] = assay: p53 protein level by immunoblotting (Example 2); type: cell-based, human; conditions: for increase in p53 protein: MCF-7 cells
# Procedure: as §2
# [2] = system: A549 (non-small cell lung cancer) cells; assay: Cell viability by MTT assay, A549 cells; conditions: for Percent survival: MTT after 48 h
# Procedure: (§3) Cell culture and luciferase assay. A549 (non-small cell lung cancer), HT-1080 (fibrosarcoma), and MCF-7 (breast cancer) cells were cultured in the appropriate media with 10% FCS supplemented with L-glutamine, penicillin, and streptomycin. p53 wild-type (+/+) and null (−/−) Mouse Embryonic Fibroblasts (MEFs) transfected with the E1A/Ras were grown in DMEM containing 15% FCS supplemented with L-glutamine, penicillin, and streptomycin. Transfections were done on MCF-7 cells using the lipofectamine Plus reagent. At 24 hours after transfection, MCF-7 cells were left untreated or treated with triptolide (20 ng/ml) or doxorubicin (100 nM) for 4, 8, and 16 hours and cells were collected for luciferase assay. Luciferase activity was measured in samples with equal protein concentration with a Luminometer (Analytical Luminescence Laboratory, San Diego, Calif.).
# (§4) Cell viability assay. Cell viability was measured by an 3-(4,5-dimethylthiazol-2-yl)-2,5-diphenyltetrazolium bromide (MTT) assay as described above. Untreated or cells treated with triptolide and/or doxorubicin were harvested at the indicated times followed by the addition of MTT to the cells in a 96-well plate. Cells were solubilized with […] acidified with 0.1N HCl. The 96-plate was read at a wavelength of 590 nm on an iEMS Labsystems plate reader.
# p53 [3] = assay: p53 protein level by immunoblotting (Example 5); type: cell-based, human
# Procedure: as §1
# HT1080 cells = assay: Cell cycle analysis by propidium iodide/FACS, HT1080 cells; type: cell-based, human; conditions: 16 h
# Procedure: Cell Cycle Analysis. HT1080 cells ([…]) were treated with triptolide (20 ng/ml) and/or doxorubicin (100 nM) for 16 h. Cells were then harvested and washed with cold PBS. The cells were resuspended gently in 5 ml of 100% ethanol and fixed at 25° C. for 1 h. After washing with PBS, the cells were incubated with DNase-free RNase A (200 μg/ml) at 37 ° C. for 1 h and washed with PBS. Propidium iodide (10 μg/ml) was added, and the cells were incubated at 37° C. for 5 min. Cells were separated by sonicating at 20% output level for 15 s using a VirSonic 50 sonicator (Vitis Inc., NY). The samples were then sorted by FACS, and cell cycle analysis was done with FlowJo (version 3.0.3) (Tree Start, Inc, San Carlos, Calif.).
# [4] = system: HT-1080 (fibrosarcoma) cells; assay: Cell viability by MTT assay, HT-1080 cells; conditions: for Percent survival: MTT after 48 h
# Procedure: as §3, §4
# p53 wild-type (+/+) MEFs = assay: Cell viability of p53+/+ mouse embryonic fibroblasts; type: cell-based
# Excerpt: Cell culture and luciferase assay.
# Functional p53 enhances triptolide-induced cell death.
# [5] = A549, Triptolide 5 ng/ml, Doxorubicin 100 nM, alone or combined
# [6] = HT-1080, Triptolide 5 ng/ml, Doxorubicin 100 nM, alone or combined
# [7] = Mus musculus, Fibroblast, read-out: reduction of cell viability
smiles,measurement,setting,value
"CC(C)[C@]12O[C@H]1[C@@H]1O[C@]13[C@]1(O[C@H]1C[C@H]1C4=C(CC[C@@]13C)C(=O)OC4)[C@@H]2O [PG490, triptolide]",reduction of basal p21 levels,"p21; HT1080, triptolide 20 ng/ml",50%
same,effect on CPT-11-mediated induction of p21,p21; HT1080 and A549 cells,inhibits
same,effect on p21 expression,p21,did not affect
same,reduction of doxorubicin-mediated induction of p53,p21; triptolide 5 ng/ml,58%
same,effect on doxorubicin-induced increase in p21,p21; triptolide 20 ng/ml,completely blocked
same,change in levels of the Mdm2 protein,"Mdm2; MCF-7, triptolide 5 ng/ml, 8 or 24 hours",no significant change
same,increase in Mdm2 protein,"Mdm2; MCF-7, triptolide 20 ng/ml, 8 h",approximately 1.5 fold
same,Mdm2 protein,"Mdm2; MCF-7, triptolide 20 ng/ml, 24 h",almost a complete loss
same,mdm2 mRNA,Mdm2; cells treated with triptolide,time-dependent decrease
same,increase in p53 steady state protein levels,"p53 [1]; MCF-7 and A549 cells, dose- and time-dependent",2-4 fold
same,increase in p53 protein,p53 [1],greater than 4 fold
same,Percent survival,[2]; [5],91.1 ± 3.8%
same,Percent survival,"[2]; A549, Triptolide 20 ng/ml alone or with Doxorubicin 100 nM",64.0 ± 8.2%
same,effect on cell death induced by carboplatinum,[2]; A549 cells,enhances cell death
same,increase in p53,"p53 [3]; HT1080, triptolide 5 ng/ml",2.4 fold
same,increase in p53 steady-state protein levels,"p53 [3]; HT1080, triptolide 20 ng/ml, 9 h",4 fold
same,cells in S phase,"HT1080 cells; HT1080, triptolide 20 ng/ml, 23.7% in unstimulated cells",46%
same,Percent survival,[4]; [6],90.4 ± 6.2%
same,Percent survival,"[4]; HT-1080, Triptolide 20 ng/ml alone or with Doxorubicin 100 nM",26.0 ± 5.2%
same,cytotoxicity at 0.02 µg/mL,"[4]; Homo sapiens, HT-1080, read-out: decrease in cell viability",74%
same,cytotoxicity at 0.005 µg/mL,p53 wild-type (+/+) MEFs; [7],48%
same,cytotoxicity at 0.01 µg/mL,p53 wild-type (+/+) MEFs; [7],73%
"COc1cccc2c1C(=O)c1c(O)c3c(c(O)c1C2=O)C[C@@](O)(C(=O)CO)C[C@@H]3O[C@H]1C[C@H](N)[C@H](O)[C@H](C)O1 [doxorubicin, reference compound]",increase in p21,"p21; HT1080, doxorubicin",14.5 fold
same,effect on p21 expression,p21,did not affect
same,increase in the Mdm2 mRNA and protein,"Mdm2; MCF-7 cells, doxorubicin 100 nM",1.5-2 fold
same,increase in p53 protein,p53 [1],2 fold
same,Percent survival,[2]; [5],85.7 ± 9.6%
same,cytotoxicity at 0.1 µM,"[2]; Homo sapiens, A549, 48 h, read-out: decrease in cell viability, A549, triptolide 20 ng/ml, doxorubicin 100 nM, alone or combined, 48 hours",14.3%
same,increase in p53 protein,"p53 [3]; HT1080, doxorubicin alone or plus triptolide",4.9 fold
same,cells in G2/M,"HT1080 cells; HT1080, doxorubicin 100 nM alone or with triptolide 20 ng/ml, 11% without treatment",49.8%
same,Percent survival,[4]; [6],93.6 ± 4.3%
same,cytotoxicity at 0.1 µM,"[4]; Homo sapiens, HT-1080, 48 h, read-out: decrease in cell viability, HT-1080, triptolide 5 ng/ml (13.5 nM), doxorubicin 100 nM, alone or combined, 48 hours",6.4%
same,more cell death in MEF cells with wild-type p53 than in those without functional p53,p53 wild-type (+/+) MEFs,35%
